# Results from US20250388584A1, “TPK AGONIST AND METHOD FOR TREATING NEURODEGENERATIVE DISEASES USING SAME” (SHANGHAI RAISING PHARMACEUTICAL CO., LTD., priority 2022, published 2025).
# Where a name gives a salt, the structure may show the parent alone. Read-outs that look alike come from different tables or passages of the source.
# Target: TPK enzyme (Homo sapiens (Human), UniProt Q9H3S4)
# Test: TPK enzyme activity test
# Assay type: biochemical
# Conditions: for Emax: calculated with the effect of DMSO on TPK enzyme activity as 100%; for EC50: promoting effect on TPK enzyme activity
# Sequence of TPK enzyme (Q9H3S4 whole entry): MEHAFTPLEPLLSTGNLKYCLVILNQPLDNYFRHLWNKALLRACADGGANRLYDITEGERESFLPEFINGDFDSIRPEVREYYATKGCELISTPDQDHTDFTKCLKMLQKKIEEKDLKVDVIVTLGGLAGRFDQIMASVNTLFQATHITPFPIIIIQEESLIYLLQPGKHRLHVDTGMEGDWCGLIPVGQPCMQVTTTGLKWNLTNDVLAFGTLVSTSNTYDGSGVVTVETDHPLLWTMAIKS
Emax (read-out: Emax),EC50,Emax,Compound
136%,–,–,"O=C1CCCCN1CCCCCCN1C(=O)CSc2ccc(C(F)(F)F)cc21 [Compound 195, 4-(6-(2-oxopiperidin-1-yl)hexyl)-6-(trifluoromethyl)-2H-benzo[b][1,4]thiazin-3(4H)-one]"
146%,1.16 µM,–,"Cc1ccc2nc3c(=O)n(CCC(=O)N4CCN(c5cccc(C(F)(F)F)c5)CC4)cnc3cc2c1 [Compound 138, 8-methyl-3-(3-oxo-3-(4-(3-(trifluoromethyl)phenyl)piperazin-1-yl)propyl)pyrimido[5,4-b]quinolin-4(3H)-one]"
158%,1.22 µM,–,COc1cccc(N2CCN(C(=O)Cn3cnc4c([nH]c5ccc(C)cc54)c3=O)CC2)c1 [Compound 45]
126%,–,–,"COC(=O)c1cccc(CNC(=O)CCn2cnc3c([nH]c4ccc(C)cc43)c2=O)c1 [Compound 83, methyl 3-((3-(8-methyl-4-oxo-4,5-dihydro-3H-pyrimido[5,4-b]indol-3-yl)propanamido)methyl)benzoate]"
192%,–,–,"Cc1ccc2[nH]c3c(=O)n(CCC(=O)NCCN(C)c4cccc(C(F)(F)F)c4)cnc3c2c1 [Compound 93, N-(2-(methyl(3-(trifluoromethyl)phenyl)amino)ethyl)-3-(8-methyl-4-oxo-4,5-dihydro-3H-pyrimido[5,4-b]indol-3-yl)propanamide]"
–,0.617 µM,–,"Cc1ccc2ncc3c(=O)n(CCCC(=O)N4CCC(Cc5ccc(F)cc5)CC4)cnc3c2c1 [Compound 218, 3-(4-(4-(4-fluorobenzyl)piperidin-1-yl)-4-oxobutyl)-9-methylpyrimido[5,4-c]quinolin-4(3H)-one]"
123%,–,–,Cc1ccc2[nH]c3c(=O)n(CCC(=O)N4CCN(c5ccccc5)CC4)cnc3c2c1 [Compound 32]
124%,–,–,Cc1ccc2[nH]c3c(=O)n(CCC(=O)NCc4cccc(S(N)(=O)=O)c4)cnc3c2c1 [Compound 88]
174%,0.545 µM,–,"Cc1ccc2c(c1)-c1nc(=O)n(CCCN3CCN(c4cccc(Cl)c4Cl)CC3)cc1CO2 [Compound 213, 3-(3-(4-(2,3-dichlorophenyl)piperazin-1-yl)propyl)-9-methyl-3,5-dihydro-2H-chromeno[4,3-d]pyrimidin-2-one]"
145%,–,–,Cc1cccc(N2CCN(C(=O)CCn3cnc4c([nH]c5ccc(C)cc54)c3=O)CC2)c1 [Compound 38]
125%,–,–,Cc1ccc2[nH]c3c(=O)n(CCC(=O)N4CCN(c5ccccc5F)CC4)cnc3c2c1 [Compound 40]
139%,2.29 µM,–,"O=C(CCn1cnc2c([nH]c3ccccc32)c1=O)N1CCN(c2cccc(C(F)(F)F)c2)CC1 [Compound 5, 3-(3-oxo-3-(4-(3-(trifluoromethyl)phenyl)piperazin-1-yl)propyl)-3,5-dihydro-4H-pyrimido[5,4-b]indol-4-one]"
208%,1.03 µM,–,"O=C(CCn1cnc2c([nH]c3ccc(C(F)(F)F)cc32)c1=O)N1CCN(c2cccc(C(F)(F)F)c2)CC1 [Compound 6, 3-(3-oxo-3-(4-(3-(trifluoromethyl)phenyl)piperazin-1-yl)propyl)-8-(trifluoromethyl)-3,5-dihydro-4H-pyrimido[5,4-b]indol-4-one]"
147%,–,–,O=C(Cn1cnc2c(oc3ccccc32)c1=O)N1CCN(c2cccc(C(F)(F)F)c2)CC1 [Compound 58]
154%,1.65 µM,–,"O=C(CCn1cnc2c(c1=O)CCCc1ccccc1-2)N1CCN(c2cccc(C(F)(F)F)c2)CC1 [Compound 221, 3-(3-oxo-3-(4-(3-(trifluoromethyl)phenyl)piperazin-1-yl)propyl)-3,5,6,7-tetrahydro-4H-benzo[6,7]cyclohepta[1,2-d]pyrimidin-4-one]"
129%,–,–,"O=C1CCc2ccc(OCCCCCCN3c4ccccc4Sc4ccc(C(F)(F)F)cc43)cc2N1 [Compound 207, 7-((6-(2-(trifluoromethyl)-10H-phenothiazin-10-yl)hexyl)oxy)-3,4-dihydroquinolin-2(1H)-one]"
187%,1.2 µM,–,"Cc1ccc2[nH]c3c(=O)n(CCC(=O)NCc4cccc(C(F)(F)F)c4)ccc3c2c1 [Compound 67, 3-(6-methyl-1-oxo-1,9-dihydro-2H-pyrido[3,4-b]indol-2-yl)-N-(3-(trifluoromethyl)benzyl)propanamide]"
207%,–,–,"Cc1ccc2c(c1)[nH]c1c(=O)n(CCC(=O)N3CCN(c4cccc(C(F)(F)F)c4)CC3)cnc12 [Compound 22, 7-methyl-3-(3-oxo-3-(4-(3-(trifluoromethyl)phenyl)piperazin-1-yl)propyl)-3,5-dihydro-4H-pyrimido[5,4-b]indol-4-one]"
160%,3.56 µM,–,"Cc1ccc2[nH]c3c(=O)n(CCC(=O)N(C)CCN(C)c4cccc(C(F)(F)F)c4)cnc3c2c1 [Compound 92, N-methyl-N-(2-(methyl(3-(trifluoromethyl)phenyl)amino)ethyl)-3-(8-methyl-4-oxo-4,5-dihydro-3H-pyrimido[5,4-b]indol-3-yl)propanamide]"
–,0.107 µM,186.22%,O=C1CCc2ccc(OCCCCN3c4ccccc4Sc4ccc(C(F)(F)F)cc43)cc2N1 [Compound 204]
149%,2.05 µM,–,"Cc1ccc2[nH]c3c(=O)n(CCC(=O)N4CCN(c5cc(Cl)ccc5Cl)CC4)cnc3c2c1 [Compound 2, 3-(3-(4-(2,5-dichlorophenyl)piperazin-1-yl)-3-oxopropyl)-8-methyl-3,5-dihydro-4H-pyrimido[5,4-b]indol-4-one]"
153%,1.47 µM,–,"Cc1ccc2ncc3c(=O)n(CCCC(=O)N4CCN(c5cccc(Cl)c5Cl)CC4)cnc3c2c1 [Compound 217, 3-(4-(4-(2,3-dichlorophenyl)piperazin-1-yl)-4-oxobutyl)-9-methylpyrimido[5,4-c]quinolin-4(3H)-one]"
159%,10.6 µM,–,Cc1ccc2[nH]c3c(=O)n(CC(=O)NCCCN4CCN(Cc5ccccc5)CC4)ncc3c2c1 [Compound 55]
–,2.38 µM,137.60%,Cc1ccc2c(c1)-c1nc(=O)n(CCC(=O)N3CCN(c4cccc(Cl)c4Cl)CC3)cc1CO2 [Compound 214]
–,0.5 µM,143%,"O=c1c2c(ncn1CCCN1CCN(c3cccc(Cl)c3Cl)CC1)-c1ccccc1CCC2 [Formate salt of 222, 3-(3-(4-(2,3-dichlorophenyl)piperazin-1-yl)propyl)-3,5,6,7-tetrahydro-4H-benzo[6,7]cyclohepta[1,2-d]pyrimidin-4-one Formate]"
120%,–,–,COc1cc2[nH]c3c(=O)n(CC(=O)NCc4cccc(C(F)(F)F)c4)cnc3c2cc1OC [Compound 113]
145%,0.463 µM,–,"Cc1ccc2[nH]c3c(=O)n(CCCC(=O)N4CCN(c5cccc(Cl)c5Cl)CC4)cnc3c2c1 [Compound 15, 3-(4-(4-(2,3-dichlorophenyl)piperazin-1-yl)-4-oxobutyl)-8-methyl-3,5-dihydro-4H-pyrimido[5,4-b]indol-4-one]"

Compound,Emax (read-out: Emax),EC50,Emax
"O=C1CCc2ccc(OCCCCN3c4ccccc4Sc4ccc(C(F)(F)F)cc43)cc2N1 [Compound 205, 7-(4-(2-(trifluoromethyl)-10H-phenothiazin-10-yl)butoxy)-3,4-dihydroquinolin-2(1H)-one]",–,–,137.51%
